Experimental data taken from PubChem BioAssay (NCI).
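The compound was tested at five concentrations on cells cultured in 96-well plates, with a 48-hour exposure period. TGI marks complete inhibition of growth.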

Experiments:
Assay in all cases: growth of human tumour cells (NCI), 48 h
[1] = system: HS 578T breast
[2] = system: SF-539 CNS
[3] = system: IGROV1 ovarian
[4] = system: K-562 leukemia
[5] = system: MCF7 breast
[6] = system: ACHN renal
[7] = system: SK-MEL-5 melanoma
[8] = system: SF-268 CNS
[9] = system: SNB-19 CNS
[10] = system: MDA-MB-231 breast
[11] = system: COLO 205 colon
[12] = system: HCC-2998 colon

SMILES: CCOc1nc2sc3c(c2c(=O)n1CCSSCCn1c(OCC)nc2sc4c(c2c1=O)CCCC4)CCCC3
- TGI [1]: > 100 µM
- TGI [2]: > 100 µM
- TGI [3]: > 100 µM
- TGI [4]: > 100 µM
- TGI [5]: > 100 µM
- TGI [6]: > 100 µM
- TGI [7]: > 100 µM
- TGI [8]: > 100 µM
- TGI [9]: > 100 µM
- TGI [10]: > 100 µM
- TGI [11]: > 100 µM
- TGI [12]: > 100 µM

SMILES: COc1ccc(NC(=O)NNS(=O)(=O)c2ccc(C)cc2)cc1
- TGI [1]: > 100 µM
- TGI [2]: > 100 µM
- TGI [3]: > 100 µM
- TGI [4]: > 100 µM
- TGI [5]: > 100 µM
- TGI [6]: > 100 µM
- TGI [7]: > 100 µM
- TGI [8]: > 100 µM
- TGI [9]: > 100 µM
- TGI [10]: > 100 µM
- TGI [11]: > 100 µM
- TGI [12]: > 100 µM

SMILES: CC1(C)CCC[C@@]2(C)C1CC[C@@]1(CO1)[C@@H]2/C=C\C(C=O)CC=O (stereo partly specified)
- TGI [1]: > 100 µM
- TGI [2]: > 100 µM
- TGI [3]: > 100 µM
- TGI [4]: > 69.5 µM
- TGI [5]: > 100 µM
- TGI [6]: > 100 µM
- TGI [7]: > 100 µM
- TGI [8]: > 100 µM
- TGI [9]: > 100 µM
- TGI [10]: > 100 µM
- TGI [11]: > 100 µM
- TGI [12]: > 100 µM

SMILES: COc1cc(-c2ccccc2)cn2c1nc1ccccc12
- TGI [1]: 71.4 µM
- TGI [2]: 50.4 µM
- TGI [3]: 55.9 µM
- TGI [4]: 67.1 µM
- TGI [5]: 35.4 µM
- TGI [6]: 49.2 µM
- TGI [7]: 37.9 µM
- TGI [8]: 79.4 µM
- TGI [9]: 69.3 µM
- TGI [10]: 49.8 µM
- TGI [11]: 39.1 µM
- TGI [12]: 33.7 µM

SMILES: N#Cc1c(N)c2c(c(-c3ccccc3)c1-c1ccccc1)C(=O)N(O)C2=O
- TGI [1]: 99.6 µM
- TGI [2]: > 100 µM
- TGI [3]: 75.2 µM
- TGI [4]: > 100 µM
- TGI [5]: > 100 µM
- TGI [6]: > 100 µM
- TGI [7]: > 100 µM
- TGI [8]: > 100 µM
- TGI [9]: > 100 µM
- TGI [10]: > 100 µM
- TGI [11]: 52.2 µM
- TGI [12]: > 100 µM

SMILES: O=C(NCCN(CCNC(=O)c1cccc(=O)n1O)CCNC(=O)c1cccc(=O)n1O)c1cccc(=O)n1O
- TGI [1]: > 100 µM
- TGI [2]: > 100 µM
- TGI [3]: > 100 µM
- TGI [4]: > 100 µM
- TGI [5]: > 100 µM
- TGI [6]: > 100 µM
- TGI [7]: > 100 µM
- TGI [8]: > 100 µM
- TGI [9]: > 100 µM
- TGI [10]: > 100 µM
- TGI [11]: > 100 µM
- TGI [12]: > 100 µM

SMILES: COc1cc(C(=O)OC2CC34CCNC35CC(OC5(OC)C2O)c2cc3c(cc24)OCO3)ccc1O (stereo unspecified)
- TGI [1]: > 100 µM
- TGI [2]: > 100 µM
- TGI [3]: > 100 µM
- TGI [4]: > 100 µM
- TGI [5]: > 100 µM
- TGI [6]: > 100 µM
- TGI [7]: > 100 µM
- TGI [8]: > 100 µM
- TGI [9]: > 100 µM
- TGI [10]: > 100 µM
- TGI [11]: > 100 µM
- TGI [12]: > 100 µM

SMILES: CCOC(=O)c1ccc(N(CCOS(=O)(=O)c2ccc(C)cc2)CCOS(=O)(=O)c2ccc(C)cc2)cc1
- TGI [1]: > 100 µM
- TGI [2]: 41.1 µM
- TGI [3]: > 100 µM
- TGI [4]: > 100 µM
- TGI [5]: > 100 µM
- TGI [6]: > 100 µM
- TGI [7]: > 100 µM
- TGI [8]: > 100 µM
- TGI [9]: > 100 µM
- TGI [10]: 86.8 µM
- TGI [11]: > 100 µM
- TGI [12]: > 100 µM
